We go through five compounds from US20230129721A1, “STABILIZER FOR RADIOPHARMACEUTICALS AND RADIOPHARMACEUTICAL COMPOSITION COMPRISING THE SAME” (THE ASAN FOUNDATION, priority 2020, published 2023).

Data set [1] is described as follows: Radiochemical purity of [^18F]PI-2620 radiopharmaceutical composition over time at 40° C. by HPLC. The class given is physicochemical. The method, then:
Fluoride ([^18F]) and 2 mg of a precursor were dissolved in dimethyl sulfoxide, and the reaction mixture was fluorinated using an SN2 reaction at a temperature of 100° C. or higher. Then, a protecting group was hydrolyzed with sulfuric acid, and the mixture was neutralized with sodium hydroxide, purified using high-performance liquid chromatography (HPLC) (purification conditions: Luna C18 250×10 mm, phosphate buffer:acetonitrile=70:30 (v/v), 5.0 mL/min, UV=254 nm), and then formulated (formulation composition: 100 mg of sodium ascorbate, 2 nM phosphate buffer, and 10% ethanol) to obtain the [^18F]PI-2620 compound having a radiochemical purity of 100% (FIG. 1).
[^18F]PI-2620 was formulated with ethanol, ascorbic acid, and a phosphate buffer, and the radiochemical purity of the radiopharmaceutical composition was then measured at the elapsed times of 0 hour, 2 hours, 4 hours, and 6 hours at a temperature of 40° C. using HPLC (analysis conditions: Luna C18 250×4.6 mm, phosphate buffer:acetonitrile=60:40 (v/v), 1.0 mL/min, UV=254 nm).
[^18F]PI-2620 was obtained as a compound having a radiochemical purity of 100% in the same manner as in Example 1. To further confirm the stability of the compound, 2 equivalents of sodium ascorbate used in Example 1 was added during a formulation process (formulation composition: 200 mg of sodium ascorbate, a 2 nM phosphate buffer, and 10% ethanol), and the radiochemical purity of the radiopharmaceutical composition was then measured in the same manner as in Example 1 at the elapsed times of 0 hour, 2 hours, 4 hours, and 6 hours at a temperature of 40° C. using high-performance liquid chromatography (HPLC)
[^18F]PI-2620 was obtained as a compound having a radiochemical purity of 100% in the same manner as in Example 1. To check the causes of a decrease in radiochemical purity, the radiochemical purity of the radiopharmaceutical composition was then measured in the same manner as in Example 1 at the elapsed times of 0 hour, 2 hours, 4 hours, and 6 hours at a temperature of 40° C. under three formulation conditions (Condition 1: ethanol and water for injection (formulation composition: 10% ethanol); Condition 2: ethanol and a phosphate buffer (formulation composition: a 2 nM phosphate buffer and 10% ethanol); Condition 3: ethanol and a 2×phosphate buffer (formulation composition: a 4 nM phosphate buffer and 10% ethanol)) using high-performance liquid chromatography (HPLC).
[^18F]PI-2620 was obtained as a compound having a radiochemical purity of 98% or more in the same manner as in Example 1. As a novel stabilizing agent, vitamin B1 (VB1), vitamin B6 (VB6), vitamin B8 (VB8), vitamin B10 (VB10), or vitamin B12 (VB12) (formulation composition: 10% ethanol and a 50 mg/mL vitamin concentration) was added to ethanol and water for injection, and the radiochemical purity of the radiopharmaceutical composition was measured in the same manner as in Example 1 at the elapsed times of 0 hour, 2 hours, 4 hours, and 6 hours at a temperature of 40° C. using high-performance liquid chromatography (HPLC). A preparation including no vitamin B was used as the control.
[^18F]PI-2620 was obtained as a compound having a radiochemical purity of 98% or more in the same manner as in Example 1, and formulated with ethanol and a phosphate buffer (formulation composition: a 2 nM phosphate buffer and 10% ethanol). As a novel stabilizing agent, vitamin B1 (VB1), vitamin B6 (VB6), vitamin B8 (VB8), or vitamin B10 (VB10) was added at a concentration of 50 mg/mL, and the radiochemical purity of the radiopharmaceutical composition was measured in the same manner as in Example 1 at the elapsed times of 0 hour, 2 hours, 4 hours, and 6 hours at a temperature of 40° C. using high-performance liquid chromatography (HPLC). A preparation in which sodium ascorbate was added to the same concentrations of ethanol and phosphate buffer was used as the control. […]

Data set [2] in a line: pH (paper) of [^18F]PI-2620 radiopharmaceutical composition over time at 40° C. The data set is classed as physicochemical.
Setting [3] is: [^18F]PI-2620, ethanol and water for injection (10% ethanol), 50 mg/mL vitamin, no phosphate buffer, 0 hr.
[4] abbreviates: [^18F]PI-2620, ethanol and water for injection (10% ethanol), 50 mg/mL vitamin, no phosphate buffer, 2 hr.
The mark [5] stands for this setting: [^18F]PI-2620, ethanol and water for injection (10% ethanol), 50 mg/mL vitamin, no phosphate buffer, 4 hr.
Setting [6] is: [^18F]PI-2620, ethanol and water for injection (10% ethanol), 50 mg/mL vitamin, no phosphate buffer, 6 hr.
Where [7] appears, read: 10% ethanol, water for injection, 50 mg/mL vitamin, 0 hr.
Setting [8] is: 10% ethanol, water for injection, 50 mg/mL vitamin, 2 hr.
[9] abbreviates: 10% ethanol, water for injection, 50 mg/mL vitamin, 4 hr.
[10] abbreviates: 10% ethanol, water for injection, 50 mg/mL vitamin, 6 hr.
Setting [11] is: [^18F]PI-2620, 2 nM phosphate buffer and 10% ethanol, vitamin 50 mg/mL (control: sodium ascorbate), 0 hr.
Where [12] appears, read: [^18F]PI-2620, 2 nM phosphate buffer and 10% ethanol, vitamin 50 mg/mL (control: sodium ascorbate), 2 hr.
The mark [13] stands for this setting: [^18F]PI-2620, 2 nM phosphate buffer and 10% ethanol, vitamin 50 mg/mL (control: sodium ascorbate), 4 hr.
The mark [14] stands for this setting: [^18F]PI-2620, 2 nM phosphate buffer and 10% ethanol, vitamin 50 mg/mL (control: sodium ascorbate), 6 hr.
The mark [15] stands for this setting: 2 nM phosphate buffer and 10% ethanol, vitamin 50 mg/mL (control: sodium ascorbate), 0 hr.
Setting [16] is: 2 nM phosphate buffer and 10% ethanol, vitamin 50 mg/mL (control: sodium ascorbate), 2 hr.
Setting [17] is: 2 nM phosphate buffer and 10% ethanol, vitamin 50 mg/mL (control: sodium ascorbate), 4 hr.
The mark [18] stands for this setting: 2 nM phosphate buffer and 10% ethanol, vitamin 50 mg/mL (control: sodium ascorbate), 6 hr.

Molecules are shown by their SMILES.

For `C/C1=C2/[N-][C@H]([C@H](CC(N)=O)[C@@]2(C)CCC(=O)NC[C@H](C)OP(=O)([O-])O[C@H]2[C@@H](O)[C@@H](n3cnc4cc(C)c(C)cc43)O[C@@H]2CO)[C@]2(C)N=C(/C(C)=C3N=C(/C=C4N=C1[C@@H](CCC(N)=O)C\4(C)C)[C@@H](CCC(N)=O)[C@]\3(C)CC(N)=O)[C@@H](CCC(N)=O)[C@]2(C)CC(N)=O.[Co+2]` (stereo in doubt) [VB12, cobalamin], the “Purity (radiochemical purity)” value in data set [1] (setting [3]) was 98.33%; in data set [1] (setting [4]), 98.99%; in data set [1] (setting [5]), 98.7%; in data set [1] (setting [6]) it was 98.29%. Besides, the “PH (paper)” value is reported as 6 in data set [2] (setting [7]), 7.5 in data set [2] (setting [8]), 6.5 in data set [2] (setting [9]) and 6.5 in data set [2] (setting [10]).
Turning to `O=C1O[C@H]([C@@H](O)CO)C([O-])=C1O.[Na+]` [Na ascorbate, sodium ascorbate], the “Purity (radiochemical purity)” value in data set [1] (setting [11]) is listed as 99.05%; in data set [1] (setting [12]) it was 95.53%; in data set [1] (setting [13]), 93.77%; in data set [1] (setting [14]), 90.04%; in data set [1] ([^18F]PI-2620, 100 mg sodium ascorbate, 2 nM phosphate buffer, 10% ethanol, 0 hr), 99.05%; in data set [1] ([^18F]PI-2620, 100 mg sodium ascorbate, 2 nM phosphate buffer, 10% ethanol, 2 hr), 95.53%. Moreover, the “Purity (radiochemical purity)” value was 93.77% in data set [1] ([^18F]PI-2620, 100 mg sodium ascorbate, 2 nM phosphate buffer, 10% ethanol, 4 hr); 90.04% in data set [1] ([^18F]PI-2620, 100 mg sodium ascorbate, 2 nM phosphate buffer, 10% ethanol, 6 hr); 99.47% in data set [1] ([^18F]PI-2620, 200 mg sodium ascorbate, 2 nM phosphate buffer, 10% ethanol, 0 hr); 96.95% in data set [1] ([^18F]PI-2620, 200 mg sodium ascorbate, 2 nM phosphate buffer, 10% ethanol, 2 hr); 95.25% in data set [1] ([^18F]PI-2620, 200 mg sodium ascorbate, 2 nM phosphate buffer, 10% ethanol, 4 hr); 93.00% in data set [1] ([^18F]PI-2620, 200 mg sodium ascorbate, 2 nM phosphate buffer, 10% ethanol, 6 hr). Also, the “PH (paper)” value in data set [2] (setting [15]) was 6; in data set [2] (setting [16]), 6; in data set [2] (setting [17]), 6; in data set [2] (setting [18]), 6; in data set [2] (100 mg sodium ascorbate, 2 nM phosphate buffer, 10% ethanol, 0 hr) it was 6; in data set [2] (100 mg sodium ascorbate, 2 nM phosphate buffer, 10% ethanol, 2 hr), 6. Moreover, the “PH (paper)” value in data set [2] (100 mg sodium ascorbate, 2 nM phosphate buffer, 10% ethanol, 4 hr) was 6; in data set [2] (100 mg sodium ascorbate, 2 nM phosphate buffer, 10% ethanol, 6 hr), 6; in data set [2] (200 mg sodium ascorbate, 2 nM phosphate buffer, 10% ethanol, 0 hr) it was 6; in data set [2] (200 mg sodium ascorbate, 2 nM phosphate buffer, 10% ethanol, 2 hr), 6; in data set [2] (200 mg sodium ascorbate, 2 nM phosphate buffer, 10% ethanol, 4 hr) it was 6; in data set [2] (200 mg sodium ascorbate, 2 nM phosphate buffer, 10% ethanol, 6 hr), 6.
For the compound `Cc1ncc(C[n+]2csc(CCO)c2C)c(N)n1` [VB1, thiamine], the “Purity (radiochemical purity)” value in data set [1] ([^18F]PI-2620, 2 nM phosphate buffer and 10% ethanol, vitamin 0.78 mg/mL, 0 hr) is listed as 99.66%; in data set [1] ([^18F]PI-2620, 2 nM phosphate buffer and 10% ethanol, vitamin 0.78 mg/mL, 2 hr), 99.21%; in data set [1] ([^18F]PI-2620, 2 nM phosphate buffer and 10% ethanol, vitamin 0.78 mg/mL, 4 hr) it was 97.63%; in data set [1] ([^18F]PI-2620, 2 nM phosphate buffer and 10% ethanol, vitamin 0.78 mg/mL, 6 hr), 97.12%; in data set [1] (setting [11]) it was 98.79%; in data set [1] (setting [12]), 98.46%. Moreover, the “Purity (radiochemical purity)” value in data set [1] (setting [13]) amounted to 98.97%; in data set [1] (setting [14]) it was 98.94%; in data set [1] (setting [3]) it was 98.92%; in data set [1] (setting [4]) it was 98.97%; in data set [1] (setting [5]), 99.1%; in data set [1] (setting [6]) it was 98.94%. Also, the “PH (paper)” value in data set [2] (2 nM phosphate buffer and 10% ethanol, vitamin 0.78 mg/mL, 0 hr) worked out at 6; in data set [2] (2 nM phosphate buffer and 10% ethanol, vitamin 0.78 mg/mL, 2 hr) it was 6; in data set [2] (2 nM phosphate buffer and 10% ethanol, vitamin 0.78 mg/mL, 4 hr) it was 6; in data set [2] (2 nM phosphate buffer and 10% ethanol, vitamin 0.78 mg/mL, 6 hr), 6; in data set [2] (setting [15]) it was 5; in data set [2] (setting [16]), 5.5. Also, the “PH (paper)” value in data set [2] (setting [17]) was determined as 5.5; in data set [2] (setting [18]), 5.5; in data set [2] (setting [7]), 8; in data set [2] (setting [8]) it was 7; in data set [2] (setting [9]), 7; in data set [2] (setting [10]), 7.
For the compound `Nc1ncnc2c1ncn2[C@@H]1O[C@H](COP(=O)(O)O)[C@@H](O)[C@H]1O` [VB8, adenosine phosphate], the “Purity (radiochemical purity)” value in data set [1] (setting [11]) was 98.06%; in data set [1] (setting [12]) it was 95.43%; in data set [1] (setting [13]), 92.46%; in data set [1] (setting [14]), 87.76%; in data set [1] (setting [3]) it was 98.92%; in data set [1] (setting [4]) it was 99.14%. Further, the figures for the “Purity (radiochemical purity)” value in data set [1] (setting [5]) and in data set [1] (setting [6]) were 98.8% and 98.2%, respectively. Moreover, the “PH (paper)” value in data set [2] (setting [15]), in data set [2] (setting [16]), in data set [2] (setting [17]), in data set [2] (setting [18]), in data set [2] (setting [7]) and in data set [2] (setting [8]) was 6 throughout. Besides, the “PH (paper)” value in data set [2] (setting [9]) and in data set [2] (setting [10]) was 6 in each case.
On to `[18F]c1cc(-c2ccc3c(n2)[nH]c2ccncc23)ccn1` [[^18F]PI-2620], for which, in data set [1] ([^18F]PI-2620 under three formulation conditions (ethanol with or without phosphate buffer), 6 hr), the “Purity (radiochemical purity)” value is reported as “not decomposed at a high temperature”.
